Data from PubChem BioAssay (NCI).
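Compound exposure: 48 hours, 5 concentrations, 96-well plates. At the GI50, growth is halved. TGI marks complete inhibition of growth.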

Experiments:
Assay in all cases: growth of human tumour cells (NCI), 48 h
[1] = system: NCI-H460 lung
[2] = system: K-562 leukemia
[3] = system: OVCAR-3 ovarian
[4] = system: SK-MEL-28 melanoma
[5] = system: NCI-H522 lung
[6] = system: CAKI-1 renal
[7] = system: CCRF-CEM leukemia
[8] = system: SK-MEL-2 melanoma
[9] = system: SF-268 CNS
[10] = system: DU-145 prostate
[11] = system: HOP-92 NSCLC
[12] = system: MCF7 breast
[13] = system: MDA-MB-231 breast
[14] = system: SF-295 CNS
[15] = system: KM12 colon
[16] = system: MALME-3M melanoma
[17] = system: HOP-62 NSCLC
[18] = system: HT29 colon
[19] = system: COLO 205 colon
[20] = system: A549 NSCLC
[21] = system: A498 renal
[22] = system: TK-10 renal
[23] = system: LOX IMVI melanoma
[24] = system: UACC-257 melanoma
[25] = system: IGROV1 ovarian
[26] = system: M14 melanoma
[27] = system: NCI-H23 lung
[28] = system: 786-0 renal
[29] = system: NCI-H226 lung
[30] = system: OVCAR-8 ovarian
[31] = system: MDA-MB-435
[32] = system: SW-620 colon
[33] = system: NCI/ADR-RES ovarian
[34] = system: U251 CNS
[35] = system: RPMI-8226 leukemia
[36] = system: UACC-62 melanoma
[37] = system: SK-MEL-5 melanoma
[38] = system: T-47D breast
[39] = system: RXF 393 renal
[40] = system: EKVX NSCLC
[41] = system: HCT-15 colon
[42] = system: OVCAR-5 ovarian
[43] = system: SF-539 CNS
[44] = system: SK-OV-3 ovarian
[45] = system: SNB-19 CNS
[46] = system: HS 578T breast
[47] = system: ACHN renal
[48] = system: OVCAR-4 ovarian
[49] = system: HCT-116 colon
[50] = system: SR leukemia
[51] = system: PC-3 prostate
[52] = system: UO-31 renal
[53] = system: BT-549 breast

Question: What does the source list for `C=C1C(O)C2C(=C(CC(C)C)C13CC3)C(=O)C(C)(C)C2O` (stereo unspecified)?
Answer: GI50 [1]: > 100 µM; TGI [1]: > 100 µM; GI50 [2]: 0.859 µM; TGI [2]: > 100 µM; GI50 [3]: 75.8 µM; TGI [3]: > 100 µM; GI50 [4]: > 100 µM; TGI [4]: > 100 µM; GI50 [5]: > 100 µM; TGI [5]: > 100 µM; GI50 [6]: > 100 µM; TGI [6]: > 100 µM; GI50 [7]: > 100 µM; TGI [7]: > 100 µM; GI50 [8]: > 100 µM; TGI [8]: > 100 µM; GI50 [9]: > 100 µM; TGI [9]: > 100 µM; GI50 [10]: > 100 µM; TGI [10]: > 100 µM; GI50 [11]: > 100 µM; TGI [11]: > 100 µM; GI50 [12]: > 100 µM; TGI [12]: > 100 µM; GI50 [13]: > 100 µM; TGI [13]: > 100 µM; GI50 [14]: > 100 µM; TGI [14]: > 100 µM; GI50 [15]: > 100 µM; TGI [15]: > 100 µM; GI50 [16]: 89.9 µM; TGI [16]: > 100 µM; GI50 [17]: > 100 µM; TGI [17]: > 100 µM; GI50 [18]: > 100 µM; TGI [18]: > 100 µM; GI50 [19]: > 100 µM; TGI [19]: > 100 µM; GI50 [20]: > 100 µM; TGI [20]: > 100 µM; GI50 [21]: > 100 µM; TGI [21]: > 100 µM; GI50 [22]: > 100 µM; TGI [22]: > 100 µM; GI50 [23]: > 100 µM; TGI [23]: > 100 µM; GI50 [24]: > 100 µM; TGI [24]: > 100 µM; GI50 [25]: > 100 µM; TGI [25]: > 100 µM; GI50 [26]: > 100 µM; TGI [26]: > 100 µM; GI50 [27]: > 100 µM; TGI [27]: > 100 µM; GI50 [28]: > 100 µM; TGI [28]: > 100 µM; GI50 [29]: > 100 µM; TGI [29]: > 100 µM; GI50 [30]: > 100 µM; TGI [30]: > 100 µM; GI50 [31]: > 100 µM; TGI [31]: > 100 µM; GI50 [32]: > 100 µM; TGI [32]: > 100 µM; GI50 [33]: > 100 µM; TGI [33]: > 100 µM; GI50 [34]: > 100 µM; TGI [34]: > 100 µM; GI50 [35]: 42.1 µM; TGI [35]: > 100 µM; GI50 [36]: > 100 µM; TGI [36]: > 100 µM; GI50 [37]: > 100 µM; TGI [37]: > 100 µM; GI50 [38]: > 100 µM; TGI [38]: > 100 µM; GI50 [39]: > 100 µM; TGI [39]: > 100 µM; GI50 [40]: > 100 µM; TGI [40]: > 100 µM; GI50 [41]: > 100 µM; TGI [41]: > 100 µM; GI50 [42]: > 100 µM; TGI [42]: > 100 µM; GI50 [43]: > 100 µM; TGI [43]: > 100 µM; GI50 [44]: > 100 µM; TGI [44]: > 100 µM; GI50 [45]: > 100 µM; TGI [45]: > 100 µM; GI50 [46]: > 100 µM; TGI [46]: > 100 µM; GI50 [47]: > 100 µM; TGI [47]: > 100 µM; GI50 [48]: > 100 µM; TGI [48]: > 100 µM; GI50 [49]: > 100 µM; TGI [49]: > 100 µM; GI50 [50]: > 100 µM; TGI [50]: > 100 µM; GI50 [51]: > 100 µM; TGI [51]: > 100 µM; GI50 [52]: > 100 µM; TGI [52]: > 100 µM; GI50 [53]: > 100 µM; TGI [53]: > 100 µM
